One assay has as its target HDAC1 (Homo sapiens (Human), UniProt Q13547). The assay can be described thus: HDAC1 enzymatic assay. In kind it is biochemical. The conditions noted are these: read-out: Human HDAC1 IC50. The procedure:
(§1) All enzymatic reactions were conducted in duplicate at room temperature for 17 hours in a 50 μl mixture containing HDAC assay buffer (50 mM Tris-HCl, pH 7.4, 137 mM NaCl, 2.7 mM KCl, 0.05% Tween 20, 5 μg BSA), an HDAC substrate, an HDAC enzyme, and a test compound. Compound dilution was prepared ten-fold higher than the final concentration of the compounds with 10% DMSO in HDAC assay buffer and 5 μl of the dilution was added to a 50 μl reaction so that the final concentration of DMSO is 1% in all of reactions. After enzymatic reactions, 50 μl of HDAC Developer was added to each well and the plate was incubated at room temperature for an additional 20 minutes. Fluorescence intensity was measured at an excitation of 360 nm and an emission of 460 nm using a Tecan Infinite M1000 or Biotek Synergy microplate reader.
(§2) The fluorescent intensity data were analyzed using the computer software, Graphpad Prism. In the absence of the compound, the fluorescent intensity (Ft) in each data set was defined as 100% activity. In the absence of HDAC, the fluorescent intensity (Fb) in each data set was defined as 0% activity. The percent activity in the presence of each compound was calculated according to the following equation: % activity=(F−Fb)/(Ft−Fb), where F=the fluorescent intensity in the presence of the compound.
(§3) The values of % activity versus a series of compound concentrations were then plotted using non-linear regression analysis of Sigmoidal dose-response curve generated with the equation Y=B+(T−B)/1+10((Log EC50−X)×Hill Slope), where Y=percent activity, B=minimum percent activity, T=maximum percent activity, X=logarithm of compound and Hill Slope=slope factor or Hill coefficient. The IC50 value was determined by the concentration causing a half-maximal percent activity.
(§4) HDAC1 enzymatic assays contained 0.5 ng HDAC1 and 10 uM of HDAC substrate. HDAC2 enzymatic assays contained 0.5 ng HDAC2 and 10 uM of HDAC substrate. HDAC3 enzymatic assays contained 0.4 ng HDAC3/NCOR2 and 10 uM of HDAC substrate. HDAC4 enzymatic assays contained 0.02 ng HDAC4 and 2 uM of HDAC substrate. HDAC5 enzymatic assays contained 0.5 ng HDAC5 and 2 uM of HDAC substrate. HDAC6 enzymatic assays contained 2 ng HDAC6 and 10 uM of HDAC substrate. HDAC7 enzymatic assays contained 0.05 ng HDAC7 and 2 uM of HDAC substrate. HDAC8 enzymatic assays contained 5 ng HDAC8 and 2 uM of HDAC substrate. HDAC9 enzymatic assays contained 1 ng HDAC9 and 2 uM of HDAC substrate. HDAC10 enzymatic assays contained 75 ng HDAC10 and 10 uM of HDAC substrate. HDAC11 enzymatic assays contained 5 ng HDAC11 and 2 uM of HDAC substrate.

For another assay, the target named is HDAC6 (Homo sapiens (Human), UniProt Q9UBN7). The assay can be described thus: HDAC6 enzymatic assay. The class given is biochemical. The conditions noted are these: read-out: Human HDAC6 IC50. The procedure:
as §1, §2, §3, §4

20 compounds from patent US10357493B2, “Metalloenzyme inhibitor compounds” (Selenity Therapeutics (Bermuda), Ltd., priority 2017, dated 2019) can be followed below.

HDAC6, sequence (Q9UBN7 whole entry): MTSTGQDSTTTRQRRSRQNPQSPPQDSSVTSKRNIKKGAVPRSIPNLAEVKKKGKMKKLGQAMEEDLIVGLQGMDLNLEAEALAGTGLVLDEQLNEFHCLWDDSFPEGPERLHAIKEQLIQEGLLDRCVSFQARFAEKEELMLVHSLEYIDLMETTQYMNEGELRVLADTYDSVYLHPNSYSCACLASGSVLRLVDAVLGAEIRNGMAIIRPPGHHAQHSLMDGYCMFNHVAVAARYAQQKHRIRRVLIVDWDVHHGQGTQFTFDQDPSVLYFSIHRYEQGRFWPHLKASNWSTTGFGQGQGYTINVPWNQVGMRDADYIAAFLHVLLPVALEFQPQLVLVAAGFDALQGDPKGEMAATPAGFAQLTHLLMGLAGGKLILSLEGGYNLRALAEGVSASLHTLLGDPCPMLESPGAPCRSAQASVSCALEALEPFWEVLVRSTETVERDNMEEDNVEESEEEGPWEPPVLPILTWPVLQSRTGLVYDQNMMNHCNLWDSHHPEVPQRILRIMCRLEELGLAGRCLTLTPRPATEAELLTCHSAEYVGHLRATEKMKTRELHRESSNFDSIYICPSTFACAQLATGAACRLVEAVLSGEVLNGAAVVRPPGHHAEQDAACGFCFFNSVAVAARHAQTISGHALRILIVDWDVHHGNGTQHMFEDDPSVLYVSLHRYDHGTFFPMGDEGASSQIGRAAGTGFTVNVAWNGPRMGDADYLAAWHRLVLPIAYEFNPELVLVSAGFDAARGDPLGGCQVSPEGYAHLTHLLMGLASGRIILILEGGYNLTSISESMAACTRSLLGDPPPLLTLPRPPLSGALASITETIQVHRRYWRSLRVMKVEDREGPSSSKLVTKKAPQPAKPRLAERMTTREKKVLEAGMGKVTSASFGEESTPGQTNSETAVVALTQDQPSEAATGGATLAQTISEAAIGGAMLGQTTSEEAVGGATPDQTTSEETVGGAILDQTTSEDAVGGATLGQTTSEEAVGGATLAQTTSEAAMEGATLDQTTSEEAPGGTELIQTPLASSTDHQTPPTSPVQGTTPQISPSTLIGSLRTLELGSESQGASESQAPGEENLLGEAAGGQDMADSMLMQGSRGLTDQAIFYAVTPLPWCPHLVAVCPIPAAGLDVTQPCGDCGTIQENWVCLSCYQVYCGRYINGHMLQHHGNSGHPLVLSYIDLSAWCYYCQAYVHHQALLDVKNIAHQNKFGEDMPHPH
HDAC1, sequence (Q13547 whole entry): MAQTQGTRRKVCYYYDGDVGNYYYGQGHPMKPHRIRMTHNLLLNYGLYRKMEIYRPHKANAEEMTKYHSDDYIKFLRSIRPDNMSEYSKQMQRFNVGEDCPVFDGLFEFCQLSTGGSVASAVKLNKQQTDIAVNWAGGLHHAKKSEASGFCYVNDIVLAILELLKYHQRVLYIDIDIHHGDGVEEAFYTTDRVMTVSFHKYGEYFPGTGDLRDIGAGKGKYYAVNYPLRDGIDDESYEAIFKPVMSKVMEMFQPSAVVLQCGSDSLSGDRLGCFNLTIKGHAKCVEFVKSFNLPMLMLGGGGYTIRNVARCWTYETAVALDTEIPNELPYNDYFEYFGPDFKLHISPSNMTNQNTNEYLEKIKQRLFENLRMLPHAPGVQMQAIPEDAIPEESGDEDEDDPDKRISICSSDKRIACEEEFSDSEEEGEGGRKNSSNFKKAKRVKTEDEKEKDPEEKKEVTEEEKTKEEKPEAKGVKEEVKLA

As to `CC(Nc1ncc(-c2nnc(C(F)F)o2)cn1)c1c(F)cccc1F` (single isomer, unassigned; (-)) [100(−), (−)-5-(5-(difluoromethyl)-1,3,4-oxadiazol-2-yl)-N-(1-(2,6-difluorophenyl)ethyl)pyrimidin-2-amine], the IC50 (commonly the concentration that gives 50% inhibition) at HDAC1 was above 30 µM; at HDAC6, above 1 µM.
For the compound `FC(F)c1nnc(-c2cnc(NC3(c4cc(C(F)(F)F)ccc4Cl)CC3)nc2)o1` [Example 81, N-(1-(2-chloro-5-(trifluoromethyl)phenyl)cyclopropyl)-5-(5-(difluoromethyl)-1,3,4-oxadiazol-2-yl)pyrimidin-2-amine], the IC50 is above 30 µM at HDAC1 and 0.21 µM on HDAC6.
For the compound `Fc1cccc(C2(Nc3ncc(-c4nnc(C(F)F)o4)cn3)CC2)c1Cl` [Example 91, N-(1-(2-chloro-3-fluorophenyl)cyclopropyl)-5-(5-(difluoromethyl)-1,3,4-oxadiazol-2-yl)pyrimidin-2-amine], the IC50 on HDAC1 was above 30 µM; at HDAC6 it was 0.021 µM.
As for `CC(NS(C)(=O)=O)C(Nc1ncc(-c2nnc(C(F)F)o2)cn1)c1ccc(F)cc1` (single isomer, unassigned) [Example 127A, N-(1-((5-(5-(difluoromethyl)-1,3,4-oxadiazol-2-yl)pyrimidin-2-yl)amino)-1-(4-fluorophenyl)propan-2-yl)methanesulfonamide], the values for the IC50 on HDAC1 and at HDAC6 were above 30 µM and 0.045 µM, respectively.
The matching figures for `FC(F)c1nnc(-c2cnc(NC3(c4ccccc4OC(F)(F)F)CC3)nc2)o1` [Example 55, 5-(5-(difluoromethyl)-1,3,4-oxadiazol-2-yl)-N-(1-(2-(trifluoromethoxy)phenyl)cyclopropyl) pyrimidin-2-amine]: above 30 µM and 0.02 µM.
On to `CC(NS(C)(=O)=O)C(Nc1ncc(-c2nnc(C(F)F)o2)cn1)c1ccc(F)cc1` (single isomer, unassigned) [Example 127B, N-(1-((5-(5-(difluoromethyl)-1,3,4-oxadiazol-2-yl)pyrimidin-2-yl)amino)-1-(4-fluorophenyl)propan-2-yl)methanesulfonamide], for which the IC50 on HDAC1 was above 30 µM; at HDAC6, 0.049 µM.
The matching figures for `Fc1cc(F)c(C2(Nc3ncc(-c4nnc(C(F)F)o4)cn3)CC2)c(F)c1` [Example 74, 5-(5-(difluoromethyl)-1,3,4-oxadiazol-2-yl)-N-(1-(2,4,6-trifluorophenyl)cyclopropyl) pyrimidin-2-amine]: above 30 µM and 0.019 µM.
The matching figures for `CS(=O)(=O)Nc1cccc(CC(Nc2ncc(-c3nnc(C(F)F)o3)cn2)c2ccc(F)cc2)c1` (stereo not drawn) [Example 132, N-(3-(2-((5-(5-(difluoromethyl)-1,3,4-oxadiazol-2-yl)pyrimidin-2-yl)amino)-2-(4-fluorophenyl)ethyl)phenyl)methanesulfonamide]: above 30 µM and 0.083 µM.
With `CN(CC(Nc1ncc(-c2nnc(C(F)F)o2)cn1)c1ccc(OC(F)(F)F)cc1)S(C)(=O)=O` (stereo not drawn) [153(+), N-(2-((5-(5-(difluoromethyl)-1,3,4-oxadiazol-2-yl)pyrimidin-2-yl)amino)-2-(4-(trifluoromethoxy)phenyl)ethyl)-N-methylmethanesulfonamide], the IC50 was above 30 µM on HDAC1 and 0.02 µM at HDAC6.
Regarding `CS(=O)(=O)Nc1ccc(CC(Nc2ncc(-c3nnc(C(F)F)o3)cn2)c2ccc(F)cc2)cc1` (stereo not drawn) [Example 133, N-(4-(2-((5-(5-(difluoromethyl)-1,3,4-oxadiazol-2-yl)pyrimidin-2-yl)amino)-2-(4-fluorophenyl)ethyl)phenyl)methanesulfonamide], the IC50 at HDAC1 was above 30 µM; at HDAC6, 0.33 µM.
Take `FC(F)c1nnc(-c2cnc(NC3(c4cc(OCC(F)(F)F)ccc4Cl)CC3)nc2)o1` [Example 89, N-(1-(2-chloro-5-(2,2,2-trifluoroethoxy)phenyl)cyclopropyl)-5-(5-(difluoromethyl)-1,3,4-oxadiazol-2-yl)pyrimidin-2-amine]: the IC50 on HDAC1 was above 30 µM; on HDAC6 it was 0.1 µM.
Take `Fc1ccc(-c2ccccc2C2(Nc3ncc(-c4nnc(C(F)F)o4)cn3)CC2)cc1` [Example 14, 5-(5-(difluoromethyl)-1,3,4-oxadiazol-2-yl)-N-(1-(4′-fluoro-[1,1′-biphenyl]-2-yl)cyclopropyl)pyrimidin-2-amine]: the IC50 at HDAC1 and on HDAC6 was above 30 µM throughout.
Turning to `CS(=O)(=O)NCC(Nc1ncc(-c2nnc(C(F)F)o2)cn1)c1ccc(Cl)cc1` (single isomer, unassigned) [173(−), N-(2-(4-chlorophenyl)-2-((5-(5-(difluoromethyl)-1,3,4-oxadiazol-2-yl)pyrimidin-2-yl)amino)ethyl)methanesulfonamide], the IC50 at HDAC1 is above 30 µM; at HDAC6 it was 0.49 µM.
For `Fc1ccc(C2(Nc3ncc(-c4nnc(C(F)F)o4)cn3)CC2)nc1` [Example 67, 5-(5-(difluoromethyl)-1,3,4-oxadiazol-2-yl)-N-(1-(5-fluoropyridin-2-yl)cyclopropyl) pyrimidin-2-amine] the same measures were above 30 µM and 0.19 µM.
For `O=C1CCCN1CC(Nc1ncc(-c2nnc(C(F)F)o2)cn1)c1ccc(F)cc1` (single isomer, unassigned) [177(−), 1-(2-((5-(5-(difluoromethyl)-1,3,4-oxadiazol-2-yl)pyrimidin-2-yl)amino)-2-(4-fluorophenyl)ethyl)pyrrolidin-2-one], the results for the IC50 on HDAC1 and at HDAC6 were above 30 µM and 0.076 µM, respectively.
For `CCS(=O)(=O)N(CC(Nc1ncc(-c2nnc(C(F)F)o2)cn1)c1ccc(F)cc1)CC(F)(F)F` (single isomer, unassigned) [164(−), N-(2-((5-(5-(difluoromethyl)-1,3,4-oxadiazol-2-yl)pyrimidin-2-yl)amino)-2-(4-fluorophenyl)ethyl)-N-(2,2,2-trifluoroethyl)ethanesulfonamide] the same measures were above 30 µM and 0.23 µM.
The matching figures for `Fc1ccc(C(CC(F)(F)F)Nc2ncc(-c3nnc(C(F)F)o3)cn2)cc1` (single isomer, unassigned; (-)) [13(−), (−)-5-(5-(difluoromethyl)-1,3,4-oxadiazol-2-yl)-N-(3,3,3-trifluoro-1-(4-fluorophenyl)propyl)pyrimidin-2-amine]: above 30 µM and 0.55 µM.
The matching figures for `O=C(C1CC1)N(CC(Nc1ncc(-c2nnc(C(F)F)o2)cn1)c1ccc(F)cc1)CC(F)(F)F` (single isomer, unassigned) [170(+), N-(2-((5-(5-(difluoromethyl)-1,3,4-oxadiazol-2-yl)pyrimidin-2-yl)amino)-2-(4-fluorophenyl)ethyl)-N-(2,2,2-trifluoroethyl)cyclopropanecarboxamide]: above 30 µM and 0.16 µM.
On to `Fc1ccc(C(COCC(F)(F)F)Nc2ncc(-c3nnc(C(F)F)o3)cn2)cc1` (single isomer, unassigned) [162(−), 5-(5-(difluoromethyl)-1,3,4-oxadiazol-2-yl)-N-(1-(4-fluorophenyl)-2-(2,2,2-trifluoroethoxy)ethyl)pyrimidin-2-amine], for which the IC50 on HDAC1 was above 30 µM; at HDAC6 it was 0.3 µM.
Consider `Fc1ccc(C(COC2CC2)Nc2ncc(-c3nnc(C(F)F)o3)cn2)c(F)c1` (single isomer, unassigned) [Example 134B, N-(2-cyclopropoxy-1-(2,4-difluorophenyl)ethyl)-5-(5-(difluoromethyl)-1,3,4-oxadiazol-2-yl)pyrimidin-2-amine], for which, at HDAC6, the IC50 was found to be 0.061 µM.
